The values below come from patent US7442696B2, “Mineralocorticoid receptor modulator compounds, processes for their preparation, and their uses” (Ligand Pharmaceuticals, Inc., priority 2004, dated 2008).

The experiment addresses T1, human mineralocorticoid receptor protein (MR) (Homo sapiens, UniProt P08235).
T1 construct: made in house; host or cells: Spodoptera frugiperda Sf21 insect cells (baculovirus)
T1 sequence (P08235 1-984): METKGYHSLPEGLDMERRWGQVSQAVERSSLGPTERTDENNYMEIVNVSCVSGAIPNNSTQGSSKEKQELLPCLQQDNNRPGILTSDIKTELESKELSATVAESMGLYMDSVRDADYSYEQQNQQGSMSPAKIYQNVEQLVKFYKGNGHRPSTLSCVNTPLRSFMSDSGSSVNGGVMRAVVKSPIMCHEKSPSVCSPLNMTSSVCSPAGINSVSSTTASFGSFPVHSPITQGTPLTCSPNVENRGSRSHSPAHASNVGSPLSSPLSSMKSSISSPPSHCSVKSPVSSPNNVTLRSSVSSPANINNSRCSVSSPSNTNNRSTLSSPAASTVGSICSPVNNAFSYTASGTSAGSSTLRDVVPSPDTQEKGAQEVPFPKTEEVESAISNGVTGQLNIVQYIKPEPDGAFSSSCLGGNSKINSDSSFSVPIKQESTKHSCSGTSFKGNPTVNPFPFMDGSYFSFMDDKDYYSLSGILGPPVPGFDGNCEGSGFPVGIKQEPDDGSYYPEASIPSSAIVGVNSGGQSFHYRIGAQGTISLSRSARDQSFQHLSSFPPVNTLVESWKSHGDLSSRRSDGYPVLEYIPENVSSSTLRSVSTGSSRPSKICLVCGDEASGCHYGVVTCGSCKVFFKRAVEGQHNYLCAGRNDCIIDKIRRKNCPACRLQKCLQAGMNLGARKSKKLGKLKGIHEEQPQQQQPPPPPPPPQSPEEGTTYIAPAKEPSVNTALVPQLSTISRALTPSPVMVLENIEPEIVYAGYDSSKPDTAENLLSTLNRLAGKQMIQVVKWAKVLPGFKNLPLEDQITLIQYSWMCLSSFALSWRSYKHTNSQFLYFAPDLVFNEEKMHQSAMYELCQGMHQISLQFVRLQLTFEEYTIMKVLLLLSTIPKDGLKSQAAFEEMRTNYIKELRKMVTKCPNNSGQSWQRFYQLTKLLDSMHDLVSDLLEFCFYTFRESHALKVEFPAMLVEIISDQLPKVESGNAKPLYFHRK
As to the kind of experiment: Mineralocorticoid receptor binding assay ([3H]aldosterone competition, MR lysate). Conditions: baculovirus-expressed MR lysate from Sf21 cells; 2-4 nM [3H]aldosterone; 16 hours at 4° C.; Cheng-Prusoff from IC50. As to the method: A baculovirus expression plasmid comprising cDNA encoding the human mineralocorticoid receptor protein (MR) was prepared using standard techniques. See e.g. E. A. Allegretto et. al. 268 J. Biol. Chem., 26625 (1993); G. Srinivasan and B. Thompson, 4 Mol. Endo., 209 (1990); and D. R. O'Reilly et. al., in “Baculovirus Expression Vectors”, D. R. O'Reilly et. al., eds., W. H. Freeman, New York, N.Y., pp. 139-179 (1992). That expression plasmid was co-transfected together with wild type Autographa californica multiple nuclear polyhedrosis virus DNA into Spodoptera frugiperda-21 (Sf-21) cells to generate recombinant virus comprising MR cDNA. See e.g. O'Reilly, D. R., Miller, L. K., Luckow, V. A., Regulation of expression of a baculovirus ecdysteroid UDP glucosyltransferase gene. “Baculovirus Expression Vectors.” WH Freeman, NY, 139-179 (1992). That recombinant virus comprising MR cDNA was collected.
A suspension culture of uninfected Sf21 cells was grown to a density of 1.2×10^6 cells/ml and then infected with the recombinant virus comprising MR cDNA at a multiplicity of infection of 2. Those infected Sf21 cells were incubated for 48 hours and then collected by centrifugation at 1000×g for 10 minutes at 4° C. The resulting cell pellets were resuspended in lysis buffer (50 mM Potassium Phosphate buffer, pH 7.0, 10 mM Monothioglycerol, 5 mM DTT, 20 mM Sodium Molybdate, 1 mM PMSF, 1 μg/mL aprotinin, and 10 μg/mL leupeptin) and incubated for 15 minutes on ice. Those resuspended cell pellets were homogenized using a Dounce homogenizer and a B pestle. A volume of 2 M KCl was added to the homogenized cell pellets to a final concentration of 0.4 M. The resulting MR lysates were centrifuged at 100,000×g for 60 min at 4° C. and stored for use in binding assays.
Binding assay samples were prepared in separate mini-tubes in a 96-well format at 4° C. Each binding assay sample was prepared in a volume of 250 μl of MR-Assay Buffer (10% glycerol, 10 mM sodium phosphate, 10 mM potassium fluoride, 20 mM sodium molybdate, 0.25 mM CHAPS, 2 mM DTT, (adjusted to pH 7.35)) containing 5-10 μg of MR lysate; 2-4 nM of [^3H]aldosterone; unlabeled aldosterone; and a test compound. Each test compound was assayed at several different concentrations, ranging from 0 to 10^−5 M and each was tested in the presence and in the absence of several different concentrations of unlabeled aldosterone. Each concentration of each test compound was assayed in triplicate. The assay samples were incubated for 16 hours at 4° C.
After incubation, 200 μl of 6.25% hydroxylapatite in assay buffer was added to each assay sample to precipitate the protein. The assay samples were then centrifuged and the supernatants were discarded. The resulting pellets were washed twice with assay buffer lacking DTT. Radioactivity in counts per minute (CPM) of each washed pellet was determined by liquid scintillation counter (MicroBeta™, Wallach).
Specific binding for a particular sample was calculated using the equation: (Sample CPM)−(Average Non-specific CPM) Average Non-specific CPM was defined as the amount of radioactivity from samples comprising an excess (i.e. 1000 nM) of unlabeled aldosterone. IC50 values (the concentration of test compound required to decrease specific binding by 50%) were determined using the log-logit (Hill) method. Ki values were determined using the Cheng-Prusoff equation using a previously determined Kd value for aldosterone: Ki=IC50/(1+[L]/Kd) [L]=concentration of labeled aldosterone Kd=dissociation constant of labeled aldosterone Ki values for certain mineralocorticoid receptor binding compounds are shown in Table 1.
For the compound `CC1(C)OC(=O)Nc2ccc(-c3cccc(C#N)c3)c(Cl)c21` [Compound 101, 5-Chloro-6-(3-cyanophenyl)-1,4-dihydro-4,4-dimethyl-2H-3,1-benzoxazin-2-one], the Ki (as a rule, the dissociation constant of the complex between target and ligand, obtained from inhibition or displacement) came out at 98 nM.
The compound `CC1(C)OC(=S)Nc2ccc(-c3cccc(C(F)(F)F)c3)c(Cl)c21` [Compound 104, 5-Chloro-1,4-dihydro-4,4-dimethyl-6-[3-(trifluoromethyl)phenyl]-2H-3,1-benzoxazin-2-thione] came in with a Ki of 52 nM.
For `CC(=O)c1cccc(-c2ccc3c(c2Cl)C(C)(C)OC(=O)N3)c1` [Compound 103, 6-(3-Acetylphenyl)-5-chloro-1,4-dihydro-4,4-dimethyl-2H-3,1-benzoxazin-2-one], the Ki worked out at 375 nM.
For the compound `CC1(C)OC(=O)Nc2ccc(-c3cccc(C(F)(F)F)c3)c(Cl)c21` [Compound 102, 5-Chloro-1,4-dihydro-4,4-dimethyl-6-[3-(trifluoromethyl)phenyl]-2H-3,1-benzoxazin-2-one], the affinity, expressed as Ki, was 440 nM.
For `O=C1Nc2ccc(-c3cccc(C(F)(F)F)c3)c(Cl)c2C(c2ccc(F)cc2)O1` (racemic) [Compound 118, (±)-5-Chloro-4-(4-fluorophenyl)-1,4-dihydro-6-[3-(trifluoromethyl)phenyl]-2H-3,1-benzoxazin-2-one] the value was 150 nM; for `CC1OC(=S)Nc2ccc(-c3cccc(C(F)(F)F)c3)c(Cl)c21` (racemic) [Compound 111, (±)-5-Chloro-1,4-dihydro-4-methyl-6-[3-(trifluoromethyl)phenyl]-2H-3,1-benzoxazin-2-thione], 45 nM.
